Test system: SNO-oesophageal cancer cells
Assay: Flow cytometric analysis (Annexin-V FITC / PI) of apoptosis and/or necrosis in SNO-oesophageal cancer cells
Assay type: cell-based
Settings: 10 μM
Procedure: To determine if either apoptosis or necrosis occurred, the cells were double labelled with Annexin-V FITC and Propidium Iodide (PI) by means of an Annexin-V FITC assay kit (Serotec, UK). This was done according to manufacturer's instructions with a few adjustments. Briefly, the cells (±3×10^5 cells/ml) were washed twice with cold phosphate buffered saline (PBS), followed by the addition of 100 μl 1× binding buffer. Two and a half microliters of Annexin-V along with 5 μl PI were added in the dark and was incubated for 15 minutes at room temperature. After incubation, 400 μl 1× binding buffer was added and cells were analysed using the FACSAria flow cytometer (BD Biosciences, San Jose, Calif.) with FACSDiva software (BD Biosciences, San Jose, Calif.) 492 nm (excitation) and 520 nm for Annexin and 488 nm and 575 nm(emission) for PI.
The cell membrane contains a negatively charged phosphatidylserine (PS) on the inner leaflet and is exposed when apoptosis or necrosis takes place. Annexin-V interacts with PS in both apoptotic and necrotic cells, making these cellular deaths undistinguishable. This is overcome by using PI as an alternative label that interacts with the exposed DNA of necrotic cells only, leading to the fluorescent detection of both these labels. Pie charts (FIG. 9) were constructed for all the controls (including Ligand-1 to Ligand-5) and the different silver(I) thiocyanate phosphine complexes (1)-(5).
Pie charts representing the four different flow cytometric quadrants of Annexin-V and […] to determine the mode of cellular death induced in differentially treated SNO-oesophageal cells are represented in FIG. 9. An untreated control (A), apoptotic control (B) and necrotic control (C) were included. Cells were treated with 10 μM of the different ligands including the silver(I) thiocyanate phosphine complexes (1)-(5). An average percentage was calculated for all segments where the SEM is n=3 for all treatments except for 15% H2O2 (n=2). The four segments represent the following: White segment—negative for FITC and PI, Light grey segment—positive for FITC but negative for PI, Dark grey segment—positive for PI but negative for FITC and Black segment—positive for both FITC and PI. Cells undergoing early apoptosis are represented by the light grey segment, while those of late apoptosis and primary necrosis are represented by the black segment. Necrotic cells are represented by the dark grey segment and intact viable cells are shown by the white segment.
Approximately 3×10^5 cells were washed with ice cold phosphate buffered saline solution (PBS). The cells were double labeled using an Annexin-V FITC assay kit adjusting the protocol. A 1× binding buffer (100 μl) was used to fix the cells. Annexin-V (2.5 μl) and Propidium Iodide (PI—5 μl) labels were added respectively followed by a 15 minute incubation, at room temperature, in the dark. After the incubation period, 400 μl of the 1× binding buffer was added, where counting of the cellular events was made using an FACSAria flow cytometer (BD Biosciences, San Jose, Calif.) with FACSDiva software (BD Biosciences, San Jose, Calif.). This technique in particular identifies whether predicted apoptotic cell death (or necrosis) was induced by these complexes.
As observed in FIG. 14, dot blots represent the mode of cellular death induced in the SNO-oesophageal cancer cells after 24 hours of treatment. FIG. 14(a): 0.1% DMSO, FIG. 14(b): 100 μM CDDP, FIG. 14(c): 25% H2O2, FIG. 14(d-i): complexes (6)-(9). An average percentage was calculated for all quadrants where the SEM is n=2 for all treatments. The four quadrants represent the following: Quadrant Q3 is negative for FITC and PI, Quadrant Q4 is positive for FITC but negative for PI, Quadrant Q1 is positive for PI but negative for FITC and Quadrant Q2 is positive for both FITC and PI. Cells undergoing early apoptosis are more likely to be found in Quadrant Q4 while those of late apoptosis and primary necrosis will be found in Quadrant Q2. […]

`C1#[N+][Ag]([P+](c2ccccc2)(c2ccccc2)c2ccccc2)([P+](c2ccccc2)(c2ccccc2)c2ccccc2)[S]C#[N+][Ag]([P+](c2ccccc2)(c2ccccc2)c2ccccc2)([P+](c2ccccc2)(c2ccccc2)c2ccccc2)[S]1` [complex (1), [AgSCN(PPh3)2]2] was tested. Which “viable cells (flow cytometry)” value (24 hour treatment) did it give?
The value was roughly 57.47%.

Which “apoptotic cell death (flow cytometry, Q4 and Q2)” value (24 hours of treatment) does the source give for `c1ccc([P+](c2ccccc2)(c2ccccc2)[Ag+]([P+](c2ccccc2)(c2ccccc2)c2ccccc2)([P+](c2ccccc2)(c2ccccc2)c2ccccc2)[P+](c2ccccc2)(c2ccccc2)c2ccccc2)cc1` [complex (9), AgNO3(PPh3)4] here?
Its value is 15.3%.

What does the source list for [AgSCN{P(4-FC6H4)3}2]2 [complex (3)]?
cancer cells in which apoptosis was induced (flow cytometry) (24 hour treatment): more than half; viable cells (flow cytometry) (24 hour treatment): approximately 28%
